Laboratory results as given in ChEMBL document CHEMBL1138741, “Virulence regulation and quorum sensing in staphylococcal infections: competitive AgrC antagonists as quorum sensing inhibitors” (J Med Chem, 2004).
“And” between values parts separate entries of the source, which are not always exact repeats. Equal entries are not always repeated. Where a SMILES comes first, the peptide text is derived from it.

Tests used:
[1] = target: T1, Receptor-histidine kinase AgrC (Staphylococcus aureus, UniProt O07911); test: Concentration required to inhibit quorum sensor of Staphylococcus aureus
T1 sequence (O07911 whole entry): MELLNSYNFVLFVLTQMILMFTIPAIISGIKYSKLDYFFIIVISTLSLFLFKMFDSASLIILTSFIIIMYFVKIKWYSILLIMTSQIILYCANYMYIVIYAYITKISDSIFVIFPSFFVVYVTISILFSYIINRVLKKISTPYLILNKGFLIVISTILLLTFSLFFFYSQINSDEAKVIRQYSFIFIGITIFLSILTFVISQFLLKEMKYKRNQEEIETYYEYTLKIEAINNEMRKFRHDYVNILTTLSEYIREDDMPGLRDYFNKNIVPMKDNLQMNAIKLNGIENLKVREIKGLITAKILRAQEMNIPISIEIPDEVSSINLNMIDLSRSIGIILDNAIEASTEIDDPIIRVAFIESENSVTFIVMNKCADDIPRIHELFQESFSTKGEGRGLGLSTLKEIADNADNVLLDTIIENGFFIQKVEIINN

[2] = target: T1, Receptor-histidine kinase AgrC; test: Effective concentration to antagonise accessory gene regulator C1 of Staphylococcus aureus; range = 9-11 uM; assay type: functional
[3] = target: T1, Receptor-histidine kinase AgrC; test: Effective concentration to antagonise accessory gene regulator C2 of Staphylococcus aureus; assay type: functional
[4] = target: T1, Receptor-histidine kinase AgrC; test: Concentration required to antagonise accessory gene regulator C4 of Staphylococcus aureus; assay type: functional
[5] = target: T1, Receptor-histidine kinase AgrC; test: Concentration required to antagonise accessory gene regulator C3 of Staphylococcus aureus; assay type: functional
[6] = target: T1, Receptor-histidine kinase AgrC; test: Effective concentration to antagonise accessory gene regulator C4 of Staphylococcus aureus; assay type: functional
[7] = target: T1, Receptor-histidine kinase AgrC; test: Antagonistic concentration for accessory gene regulator C1 of Staphylococcus aureus; assay type: functional
[8] = target: T1, Receptor-histidine kinase AgrC; test: Concentration required to antagonise accessory gene regulator C2 of Staphylococcus aureus; assay type: functional
[9] = target: T1, Receptor-histidine kinase AgrC; test: Effective concentration to antagonise accessory gene regulator C3 of Staphylococcus aureus; assay type: functional

Compound	IC50 [1]	IC50 [4] [nM]	IC50 [5] [nM]	IC50 [7] [nM]	IC50 [8] [nM]	further results
CC[C@H](C)[C@@H]1NC(=O)[C@H](Cc2ccccc2)NC(=O)[C@H](C)NC(=O)[C@@H](NC(=O)[C@@H](NC(=O)[C@H](CO)NC(=O)[C@@H](N)Cc2ccc(O)cc2)[C@@H](C)O)CSC(=O)[C@@H](CCSC)NC1=O	256 nM and 30 nM					
CC[C@H](C)[C@@H]1NC(=O)[C@H](Cc2ccccc2)NC(=O)[C@H](CC(=O)O)NC(=O)[C@@H](NC(=O)[C@@H](NC(=O)[C@H](CO)NC(=O)[C@@H](N)Cc2ccc(O)cc2)[C@@H](C)O)CSC(=O)[C@H](CCSC)NC1=O (HELM PEPTIDE1{Y.S.T.C.D.F.I.M}$PEPTIDE1,PEPTIDE1,4:R3-8:R2$$$V2.0)						EC50 [2]: 11000 nM
CC[C@H](C)[C@@H]1NC(=O)[C@H](Cc2ccccc2)NC(=O)[C@H](CC(=O)O)NC(=O)[C@@H](NC(C)=O)CSC(=O)[C@H](CCSC)NC1=O (HELM PEPTIDE1{[ac].C.D.F.I.M}$PEPTIDE1,PEPTIDE1,2:R3-6:R2$$$V2.0)	8000 nM					
CC(C)C[C@@H]1NC(=O)[C@H](CO)NC(=O)[C@H](CO)NC(=O)[C@@H](NC(=O)[C@H](C)NC(=O)[C@H](CC(N)=O)NC(=O)[C@@H](NC(=O)CN)C(C)C)CSC(=O)[C@H](Cc2ccccc2)NC1=O [GVNACSSLF] (HELM PEPTIDE1{G.V.N.A.C.S.S.L.F}$PEPTIDE1,PEPTIDE1,5:R3-9:R2$$$V2.0)		86	1			EC50 [3]: 3.6 nM
CC[C@H](C)[C@@H]1NC(=O)[C@H](Cc2ccccc2)NC(=O)[C@H](Cc2ccc(O)cc2)NC(=O)[C@@H](NC(=O)[C@@H](NC(=O)[C@H](CO)NC(=O)[C@@H](N)Cc2ccc(O)cc2)[C@@H](C)O)CSC(=O)[C@H](CCSC)NC1=O [YSTCYFIM] (HELM PEPTIDE1{Y.S.T.C.Y.F.I.M}$PEPTIDE1,PEPTIDE1,4:R3-8:R2$$$V2.0)			1	7000	4	EC50 [6]: 13 nM
H-INCDFLL-OH		150		70	6	EC50 [9]: 26 nM
